One data set can be described thus: Solubility in water. In kind it is physicochemical.
Another data set has as its system α. As to conditions: cited from earlier work.

Molecules are shown by their SMILES.

As for `CCOc1ccccc1OCCNC(C)Cc1ccc(OC)c(S(N)(=O)=O)c1.Cl` (centres unmarked) [YM-12617, 5-{2-[2-(o-ethoxyphenoxy)ethylamino]propyl}-2-methoxybenzenesulfonamide hydrochloride], in the data set “Solubility in water”, the solubility – broadly, how much of the substance goes into solution per volume – fell in the range of 3000 to 5000 µg/mL. Also, the α-blocking action entry in the data set on α is “shows an α-blocking action”.

Values taken from patent publication US4772475A, “Controlled-release multiple units pharmaceutical formulation” (Yamanouchi Pharmaceutical Co., Ltd., priority 1985, dated 1988).
